Experimental data taken from publication PMC9656319, “Pharmacokinetics and Tissue Distribution of Coumarins from Tagetes lucida in an LPS-Induced Neuroinflammation Model” (Plants, 2022).

Columns and labels:
[1] = Stability of the analytes in spiked plasma, brain, kidney and spleen matrices (autosampler, long-term, freeze-thaw); type: physicochemical, mice; settings: for Stability Autosampler RE (%): processed samples in autosampler vials 24 h room temperature; for Stability Freeze-Thaw RE (%): three cycles (−4 °C to 25 °C); for Stability Long-Term RE (%): −70 °C for 30 days
Experimental: The stability of the compounds obtained from each enriched matrices at the QC concentrations was evaluated under different conditions that covered the processing, handling, and storage phases that could be developed throughout the study.
Individual stock solutions of PE, SC, DF, HR, PU, and rutin (IS) were prepared separately in methanol (1 mg/mL) and stored at −4 °C until use. From the stocks, a working solution in methanol was prepared at a concentration of 200 µg/mL of each coumarin. Blank plasma or organs supernatant samples (80 µL) were spiked with 20 µL of serial dilutions of working solution to obtain calibration curves ranging between 0.156, 0.312, 0.625, 1.25, 2.5, 5, 10, 20, and 40 µg/mL of each coumarin. Quality control (QC) samples were prepared at three levels of 0.3 (low), 3 (medium), and 30 (high) µg/mL for each coumarin.
The stability of the analytes in plasma, brain, kidneys, and spleen was evaluated by the analyzed concentrations of QC subjected to three different conditions. Short-term stability was determined by analysis of samples processed in the autosampler vials at 24 h at room temperature. Long-term stability was tested on samples stored at −70 °C for 30 days. Freeze-thaw stability was determined after three cycles (−4 °C to 25 °C) on three consecutive days.

[2] = Pharmacokinetic study in plasma after oral hexanic extract of Tagetes lucida, healthy and LPS-damaged mice; type: in vivo, ICR mice; settings: plasma; for Cmax / AUC(0-inf) / MRT / Tmax / half-life / AUC(0-t): ICR, mouse, po, 10 mg/kg; for Cmax / AUC(0-inf) / MRT / Tmax / half-life / AUC(0-t) / Cl/F: 10 mg/kg oral hexanic extract, mean ± SEM (n = 5); for Cmax: non-compartmental; for AUC(0-t): to 6 h
Experimental: The optimized HPLC-validated method for the quantification of coumarins present in the hexane extract of T. lucida was used to evaluate the concentration profiles over time in the plasma, brain, kidney, and spleen biological matrices after an oral administration of 10 mg/kg of the extract.
Blood samples were obtained from the retro-orbital sinus of mice and collected in heparinized tubes. Plasma was separated by centrifugation at 3500 rpm for 5 min and stored in new Eppendorf tubes at −70 °C, until further processing.
(§1) One hundred microliters of plasma and organs samples, spiked with calibration and QC concentration or samples from the pharmacokinetic study, were mixed with 300 µL of acetonitrile containing the IS at 10 µg/mL for protein precipitation, and vortexed for 3 min. Then, 200 µL of dichloromethane were added, for liquid–liquid extraction of the bioactive compounds, and vortexed for 5 min. The mixture was centrifuged at 14,000 rpm for 10 min, and the extracted organic layers were placed in new tubes, until completely dry at room temperature. For quantitative analysis, samples were resuspended in 100 µL of methanol, transferred to sampling vials, and injected into the chromatographic system, described below.
A pharmacokinetic study was carried out in sixty mice, divided in six subgroups, according to sample collection times. An acute inflammation process by the intraperitoneal (i.p.) administration of LPS at 2 mg/kg was induced in half of the mice per group, while the other half received an i.p. injection of saline solution. Ten min after the damage was induced, the mice were administered with an oral dose of 10 mg/kg of the bioactive fraction dissolved in a 1% Tween-20 aqueous solution. Blood and tissue samples were obtained and processed at 0, 0.25, 0.75, 1.5, 2, 4, and 6 h post-dosing, as indicated in the “Samples collection” and “Plasma and tissue samples processing” sections.
Pharmacokinetic parameters of PE, SC, DF, HR, and PU in plasma were calculated by PKSolver software.

[3] = set-up: method as in PMID 22465507; settings: rats, distribution of SC in different organs; cited from earlier work
[4] = Tissue distribution in the brain after oral hexanic extract of Tagetes lucida, healthy and LPS-administrated mice; type: in vivo, ICR mice; settings: after the initial absorption process
Experimental: After blood sampling, the mice were sacrificed in a chamber with chloroform by an overdose of anesthesia. The brain, kidney, and spleen were quickly removed and rinsed with saline solution, fresh weight was recorded, and immediately placed on ice. Subsequently, the organs were freeze-dried, grounded, and weighted. The lyophilized organs were individually suspended in methanol in a 1:1 volume: dry weight ratio for 24 h, then sonicated for 5 min and centrifuged at 14,000 rpm for 7 min. The supernatants were recovered in clean tubes and stored at −70 °C until their use.
as §1
A pharmacokinetic study was carried out in sixty mice, divided in six subgroups, according to sample collection times. An acute inflammation process by the intraperitoneal (i.p.) administration of LPS at 2 mg/kg was induced in half of the mice per group, while the other half received an i.p. injection of saline solution. Ten min after the damage was induced, the mice were administered with an oral dose of 10 mg/kg of the bioactive fraction dissolved in a 1% Tween-20 aqueous solution. […]
To evaluate the distribution in the tissues, bioactive coumarins were quantified in the lyophilized organs, and concentrations were adjusted to the volumes of liquid obtained by the difference between the dry and fresh weights of each tissue to simulate a distribution approximation of the compounds by tissue system.

Stability Autosampler RE (%) ([1]; brain, nominal 0.3 µg/mL): -2.15% | Stability Freeze-Thaw RE (%) ([1]; brain, nominal 0.3 µg/mL): -1.98% | Stability Long-Term RE (%) ([1]; brain, nominal 0.3 µg/mL): -0.19% | Stability Autosampler RE (%) ([1]; brain, nominal 3.0 µg/mL): 0.37% | Stability Freeze-Thaw RE (%) ([1]; brain, nominal 3.0 µg/mL): -3.09% | Stability Long-Term RE (%) ([1]; brain, nominal 3.0 µg/mL): -0.94% | Stability Autosampler RE (%) ([1]; brain, nominal 30.0 µg/mL): 4.78% | Stability Freeze-Thaw RE (%) ([1]; brain, nominal 30.0 µg/mL): -2.00% | Stability Long-Term RE (%) ([1]; brain, nominal 30.0 µg/mL): -4.75% | Stability Autosampler RE (%) ([1]; kidney, nominal 0.3 µg/mL): 7.01% | Stability Freeze-Thaw RE (%) ([1]; kidney, nominal 0.3 µg/mL): 2.62% | Stability Long-Term RE (%) ([1]; kidney, nominal 0.3 µg/mL): 3.92% | Stability Autosampler RE (%) ([1]; kidney, nominal 3.0 µg/mL): 5.72% | Stability Freeze-Thaw RE (%) ([1]; kidney, nominal 3.0 µg/mL): 1.51% | Stability Long-Term RE (%) ([1]; kidney, nominal 3.0 µg/mL): 2.63% | Stability Autosampler RE (%) ([1]; kidney, nominal 30.0 µg/mL): -0.35% | Stability Freeze-Thaw RE (%) ([1]; kidney, nominal 30.0 µg/mL): 0.49% | Stability Long-Term RE (%) ([1]; kidney, nominal 30.0 µg/mL): 4.36% | Stability Autosampler RE (%) ([1]; plasma, nominal 0.3 µg/mL): 10.18% | Stability Freeze-Thaw RE (%) ([1]; plasma, nominal 0.3 µg/mL): -14.02% | Stability Long-Term RE (%) ([1]; plasma, nominal 0.3 µg/mL): -3.50% | Stability Autosampler RE (%) ([1]; plasma, nominal 3.0 µg/mL): 8.27% | Stability Freeze-Thaw RE (%) ([1]; plasma, nominal 3.0 µg/mL): 2.70% | Stability Long-Term RE (%) ([1]; plasma, nominal 3.0 µg/mL): -14.30% | Stability Autosampler RE (%) ([1]; plasma, nominal 30.0 µg/mL): 4.74% | Stability Freeze-Thaw RE (%) ([1]; plasma, nominal 30.0 µg/mL): -0.10% | Stability Long-Term RE (%) ([1]; plasma, nominal 30.0 µg/mL): -8.41% | Stability Autosampler RE (%) ([1]; spleen, nominal 0.3 µg/mL): -7.70% | Stability Freeze-Thaw RE (%) ([1]; spleen, nominal 0.3 µg/mL): -9.57% | Stability Long-Term RE (%) ([1]; spleen, nominal 0.3 µg/mL): -9.67% | Stability Autosampler RE (%) ([1]; spleen, nominal 3.0 µg/mL): -6.71% | Stability Freeze-Thaw RE (%) ([1]; spleen, nominal 3.0 µg/mL): -2.65% | Stability Long-Term RE (%) ([1]; spleen, nominal 3.0 µg/mL): 2.22% | Stability Autosampler RE (%) ([1]; spleen, nominal 30.0 µg/mL): -0.99% | Stability Freeze-Thaw RE (%) ([1]; spleen, nominal 30.0 µg/mL): -4.22% | Stability Long-Term RE (%) ([1]; spleen, nominal 30.0 µg/mL): -2.12% | time at which the highest concentration in the brain tissue is reached [4]: 15 min
SMILES: COc1cc2ccc(=O)oc2cc1OC [SC, scoparone]
Cmax ([2]; LPS-damaged ICR mice (LPS 2 mg/kg i.p.)): 1280 ± 110 ng/mL | AUC(0-inf) ([2]; LPS-damaged ICR mice): 2780 ± 210 ng·h/mL | MRT ([2]; LPS-damaged ICR mice): 2.26 ± 0.17 h | Tmax ([2]; LPS-damaged ICR mice): 42 ± 20.4 min | half-life ([2]; LPS-damaged ICR mice): 39 ± 3.6 min | AUC(0-t) ([2]; LPS-damaged ICR mice): 2770 ± 210 ng·h/mL | AUC(0-inf) ([2]; healthy ICR mice): 4030 ± 630 ng·h/mL | MRT ([2]; healthy ICR mice): 4.68 ± 1.16 h | Tmax ([2]; healthy ICR mice): 75 ± 15 min | half-life ([2]; healthy ICR mice): 173 ± 49.8 min | Cmax ([2]; healthy ICR mice): 970 ± 100 ng/mL | AUC(0-t) ([2]; healthy ICR mice): 2870 ± 90 ng·h/mL | pharmacokinetic characteristics in words ([2]; LPS-treated mice, Figure 3b, 3c): fast distribution and subsequent elimination | Cl/F ([2]; LPS-damaged ICR mice): 36.52 ± 2.68 (mg/kg)/(μg/mL)/h | Cl/F ([2]; healthy ICR mice): 26.64 ± 3.00 (mg/kg)/(μg/mL)/h | quantification of the coumarin inside the brain [3]: not possible to quantify
